US4168317A, “Amino derivatives of 4-hydroxy-1,2-benzisothiazole” (BASF Aktiengesellschaft, priority 1977, dated 1979)
Structures can show the parent of a compound that is named as a salt.

Assays:
[1] = in vivo; conditions: mouse; for LD50 at 24 h: ip
Protocol: The acute toxicity was determined on groups of 10 or 20 female Swiss mice weighing 20-26 g, the compounds being administered intraperitoneally.

[2] = target: T1, cardiac β1-receptors (Rattus norvegicus, UniProt P18090); assay: β1-sympatholytic action: inhibition of Isoproterenol tachycardia, pithed rats; type: in vivo, rats (Sprague-Dawley; conditions: for β1-Sympatholytic action R.A. (relative activity): Propranolol = 1.00, pithed rats, intravenous; for ED50: rat, iv, 5 min, read-out: β1-Sympatholytic action ED 50 (dose which inhibits the Isoproterenol tachycardia by 50%); for β1-sympatholytic activity greater than that of Propranolol / cardiac β1-receptors blocked at doses lower than those required to block β2-receptors: rats
T1 construct: in pithed rats (Sprague-Dawley, Mus rattus; weight 230-280 g) causes increases in pulse rate; from tissue; host or cells: heart in the living pithed Sprague-Dawley rat (in vivo)
T1 sequence (P18090 whole entry): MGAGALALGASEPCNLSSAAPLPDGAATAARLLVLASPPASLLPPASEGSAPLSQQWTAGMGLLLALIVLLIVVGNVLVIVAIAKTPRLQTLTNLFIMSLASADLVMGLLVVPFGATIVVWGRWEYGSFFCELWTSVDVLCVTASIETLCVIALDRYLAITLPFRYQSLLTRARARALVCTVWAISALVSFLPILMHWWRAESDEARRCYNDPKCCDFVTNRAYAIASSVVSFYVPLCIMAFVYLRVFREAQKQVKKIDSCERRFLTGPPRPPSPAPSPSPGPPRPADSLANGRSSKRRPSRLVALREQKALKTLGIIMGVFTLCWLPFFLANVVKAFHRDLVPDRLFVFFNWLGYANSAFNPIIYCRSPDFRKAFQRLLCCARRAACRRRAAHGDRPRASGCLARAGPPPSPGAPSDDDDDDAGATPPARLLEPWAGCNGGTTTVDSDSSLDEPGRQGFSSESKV

[3] = target: T2, β2-receptors on the blood vessels (Rattus norvegicus, UniProt P10608); assay: β2-sympatholytic action: inhibition of Isoproterenol blood pressure reduction, rats under urethane narcosis; type: in vivo; conditions: for β2-Sympatholytic action R.A. (relative activity): Propranolol = 1.00, intravenous; for Q: quotient defined in footnote 6 (drawing 8), cardioselectivity, β2 versus β1 dose; for ED50: rat, iv, read-out: β2-Sympatholytic action ED 50 (dose which inhibits the Isoproterenol blood pressure reduction by 50%)
T2 construct: was tested on rats, weighing 230-280 g, under urethane narcosis; from tissue; host or cells: blood vessels in the living rat under urethane narcosis (in vivo)
T2 sequence (P10608 whole entry): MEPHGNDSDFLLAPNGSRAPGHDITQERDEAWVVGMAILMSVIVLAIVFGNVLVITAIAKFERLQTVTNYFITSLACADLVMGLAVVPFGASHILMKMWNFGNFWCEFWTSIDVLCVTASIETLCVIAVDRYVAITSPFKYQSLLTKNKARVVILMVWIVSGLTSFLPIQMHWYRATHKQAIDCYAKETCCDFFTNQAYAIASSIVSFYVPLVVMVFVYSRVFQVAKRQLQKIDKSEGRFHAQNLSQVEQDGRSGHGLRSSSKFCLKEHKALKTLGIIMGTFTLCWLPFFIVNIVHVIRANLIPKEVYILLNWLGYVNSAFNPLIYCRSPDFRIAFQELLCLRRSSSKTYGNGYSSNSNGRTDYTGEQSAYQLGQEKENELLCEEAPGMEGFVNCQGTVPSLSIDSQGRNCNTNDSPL

**Q.** With CCC(C)NCC(O)COc1cccc2sncc12 (stereo not drawn) [Example 14, 4-(2-Hydroxy-3-sec.-butylamino-propoxy)-1,2-benzisothiazole] as the compound, how does the “Therapeutic range, relative” value [1] read?
**A.** 7.18

**Q.** And the selectivity ratio [1]?
**A.** 63000

**Q.** What about the LD50 at 24 h [1] of the same compound?
**A.** 96400 µg/kg

**Q.** And the “β1-Sympatholytic action R.A. (relative activity)” value [2]?
**A.** 8.04

**Q.** What about the ED50 [2] of the same compound?
**A.** 1.53 µg/kg

**Q.** And the “β1-sympatholytic activity greater than that of Propranolol” value [2]?
**A.** 8 times

**Q.** And the “β2-Sympatholytic action R.A. (relative activity)” value ([3]; rats under urethane narcosis)?
**A.** 1.08

**Q.** And the Q [3]?
**A.** 6.93

**Q.** And the ED50 [3]?
**A.** 10.6 µg/kg

**Q.** Which “reduction of mean pressure of the carotid artery” value ([3]; Isoproterenol 0.215 μg/kg intravenously, rats under urethane narcosis, average) does the source give for CC(C)NCC(O)c1ccc(O)c(O)c1 (stereo not drawn) [Isoproterenol, reference compound] here?
**A.** 30%

**Q.** With CCC(C)(CC)NCC(O)COc1cccc2sncc12 (stereo not drawn) [Example 16, 4-[2-Hydroxy-3-(3-methyl-pentyl-3-amino)-propoxy]-1,2-benzisothiazole] as the compound, how does the “Therapeutic range, relative” value [1] read?
**A.** 4.44

**Q.** What about the selectivity ratio [1] of the same compound?
**A.** 39000

**Q.** What about the LD50 at 24 h [1] of the same compound?
**A.** 128000 µg/kg

**Q.** And the “β1-Sympatholytic action R.A. (relative activity)” value [2]?
**A.** 3.75

**Q.** And the ED50 [2]?
**A.** 3.28 µg/kg

**Q.** And the “β2-Sympatholytic action R.A. (relative activity)” value ([3]; rats under urethane narcosis)?
**A.** 0.94

**Q.** And the Q [3]?
**A.** 3.69

**Q.** And the ED50 [3]?
**A.** 12.1 µg/kg

**Q.** With CC(C)NCC(O)COc1cccc2sncc12 (stereo not drawn) [Example 1, 4-(2-hydroxy-3-isopropylaminopropoxy)-1,2-benzisothiazole hydrochloride] as the compound, how does the “Therapeutic range, absolute” value [1] read?
**A.** 32,700

**Q.** What about the “Therapeutic range, relative” value [1] of the same compound?
**A.** 3.72

**Q.** And the LD50 at 24 h [1]?
**A.** 62100 µg/kg

**Q.** What about the “β1-Sympatholytic action R.A. (relative activity)” value [2] of the same compound?
**A.** 6.47

**Q.** And the ED50 [2]?
**A.** 1.9 µg/kg

**Q.** What about the “cardiac β1-receptors blocked at doses lower than those required to block β2-receptors” value [2] of the same compound?
**A.** 2 times

**Q.** And the “β2-Sympatholytic action R.A. (relative activity)” value ([3]; rats under urethane narcosis)?
**A.** 2.71

**Q.** And the Q [3]?
**A.** 2.21

**Q.** And the ED50 [3]?
**A.** 4.2 µg/kg

**Q.** For CC(C)(C)NCC(O)COc1cccc2sncc12 (stereo not drawn) [Example 2, 4-(2-hydroxy-3-tert.-butylamino-propoxy)-1,2-benzisothiazole hydrochloride], which “Therapeutic range, absolute” value [1] is on record?
**A.** 94,500

**Q.** What about the “Therapeutic range, relative” value [1] of the same compound?
**A.** 10.76

**Q.** And the LD50 at 24 h [1]?
**A.** 154000 µg/kg

**Q.** What about the “β1-Sympatholytic action R.A. (relative activity)” value [2] of the same compound?
**A.** 7.55

**Q.** And the ED50 [2]?
**A.** 1.63 µg/kg

**Q.** And the “β2-Sympatholytic action R.A. (relative activity)” value ([3]; rats under urethane narcosis)?
**A.** 2.84

**Q.** What about the Q [3] of the same compound?
**A.** 2.47

**Q.** And the ED50 [3]?
**A.** 4.02 µg/kg

**Q.** Which “Therapeutic range, relative” value [1] does the source give for CCC(C)(C)NCC(O)COc1cccc2sncc12 (stereo not drawn) [Example 15, 4-[2-Hydroxy-3-(2-methyl-butyl-2-amino)-propoxy]-1,2-benzisothiazole] here?
**A.** 8.92

**Q.** And the selectivity ratio [1]?
**A.** 78300

**Q.** And the LD50 at 24 h [1]?
**A.** 144000 µg/kg

**Q.** What about the “β1-Sympatholytic action R.A. (relative activity)” value [2] of the same compound?
**A.** 6.68

**Q.** What about the ED50 [2] of the same compound?
**A.** 1.84 µg/kg

**Q.** And the “β2-Sympatholytic action R.A. (relative activity)” value ([3]; rats under urethane narcosis)?
**A.** 1.38

**Q.** What about the Q [3] of the same compound?
**A.** 4.48

**Q.** And the ED50 [3]?
**A.** 8.24 µg/kg

**Q.** What does the source list for C#CC(C)(C)NCC(O)COc1cccc2sncc12 (stereo not drawn) [Example 27, 4-[2-Hydroxy-3-(2-methyl-but-3-ynyl-2-amino)-propoxy]-1,2-benzisothiazole]?
**A.** Therapeutic range, relative [1]: 9.11; selectivity ratio [1]: 80000; LD50 at 24 h [1]: 184000 µg/kg; β1-Sympatholytic action R.A. (relative activity) [2]: 5.35; ED50 [2]: 2.3 µg/kg; β2-Sympatholytic action R.A. (relative activity) ([3]; rats under urethane narcosis): 1.98; Q [3]: 2.50; ED50 [3]: 5.75 µg/kg

**Q.** Which “Therapeutic range, relative” value [1] does the source give for CCCC(C)NCC(O)COc1cccc2sncc12 (stereo not drawn) [Example 35, 4-[2-Hydroxy-3-(pentyl-2-amino)-propoxy]-1,2-benziso-thiazole] here?
**A.** 2.72

**Q.** What about the selectivity ratio [1] of the same compound?
**A.** 23900

**Q.** And the LD50 at 24 h [1]?
**A.** 60300 µg/kg

**Q.** What about the “β1-Sympatholytic action R.A. (relative activity)” value [2] of the same compound?
**A.** 4.88

**Q.** What about the ED50 [2] of the same compound?
**A.** 2.52 µg/kg

**Q.** What about the “cardiac β1-receptors blocked at doses lower than those required to block β2-receptors” value [2] of the same compound?
**A.** 11 times

**Q.** What about the “β2-Sympatholytic action R.A. (relative activity)” value ([3]; rats under urethane narcosis) of the same compound?
**A.** 0.42

**Q.** And the Q [3]?
**A.** 10.70

**Q.** And the ED50 [3]?
**A.** 27 µg/kg

**Q.** For COCC(C)NCC(O)COc1cccc2sncc12 (stereo not drawn) [Example 29, 4-[2-Hydroxy-3-(1-methoxy-propyl-2-amino)-propoxy]-1,2-benzisothiazole], which “Therapeutic range, relative” value [1] is on record?
**A.** 3.11

**Q.** And the selectivity ratio [1]?
**A.** 27300

**Q.** And the LD50 at 24 h [1]?
**A.** 135000 µg/kg

**Q.** And the “β1-Sympatholytic action R.A. (relative activity)” value [2]?
**A.** 2.48

**Q.** What about the ED50 [2] of the same compound?
**A.** 4.95 µg/kg

**Q.** What about the “β1-sympatholytic activity greater than that of Propranolol” value [2] of the same compound?
**A.** 2.5 times

**Q.** What about the “β2-Sympatholytic action R.A. (relative activity)” value ([3]; rats under urethane narcosis) of the same compound?
**A.** 0.26

**Q.** And the Q [3]?
**A.** 8.90

**Q.** What about the ED50 [3] of the same compound?
**A.** 44 µg/kg
